{
  "source": "patent US5663148A",
  "about": "“Anaphylatoxin receptor ligands containing lipophilic residues” (Abbott Laboratories, priority 1994, dated 1997)",
  "note": "pKi: −log10 of the molar value. Where a SMILES comes first, the peptide text is derived from it. [ ]: non-standard residue; d: D form. The star is where a group is joined. Gly(N(CH2)2(3-indolyl)) = O=C(O)CNCCc1c[nH]c2ccccc12; Pentanoyl(5-Ph) = O=C(CCCCc1ccccc1)*; d(hhPhe) = N[C@H](CCCc1ccccc1)C(=O)O; X4 = O=C(C=Cc1ccccc1[N+](=O)[O-])*; Hydrocinnamoyl = O=C(CCc1ccccc1)*; Cha = N[C@@H](CC1CCCCC1)C(=O)O; X6 = O=C(c1cc2ccccc2[nH]1)*; PhAc = O=C(Cc1ccccc1)*; Bn = c1ccc(C*)cc1",
  "data": [
    {"target": "T1, C5a receptor (Homo sapiens, UniProt P21730)", "T1 construct": "from tissue; host or cells: polymorphonuclear leukocyte (PMNL) membrane fragments", "T1 sequence (P21730 1-350)": "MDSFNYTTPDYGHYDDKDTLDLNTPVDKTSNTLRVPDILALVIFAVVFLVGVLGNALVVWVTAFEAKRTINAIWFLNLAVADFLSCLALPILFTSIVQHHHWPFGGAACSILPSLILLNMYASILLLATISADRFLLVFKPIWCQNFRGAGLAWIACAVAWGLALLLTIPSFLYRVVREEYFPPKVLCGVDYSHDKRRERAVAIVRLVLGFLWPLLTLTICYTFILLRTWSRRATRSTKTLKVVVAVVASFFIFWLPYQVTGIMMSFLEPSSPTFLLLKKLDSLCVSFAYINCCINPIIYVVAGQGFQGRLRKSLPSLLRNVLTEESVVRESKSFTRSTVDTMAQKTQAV", "assay": "Anaphylatoxin (C5a) receptor binding Ki determination, 125I-C5a on PMNL membrane fragments", "conditions": "read-out: Ki (In vitro C5a Receptor Binding Potency)", "protocol": "The membrane-bound radiolabeled C5a was separated from the free radiolabeled C5a by filtration, and the recovered gamma radioactivity was measured. […] Free and membrane-bound ligand were separated by filtration.", "values": [
      {"smiles": "CC(C)C[C@H](NC(=O)[C@H](C)NC(=O)[C@H](CC1CCCCC1)NC(=O)[C@@H]1CCCN1C(=O)[C@H](CCCCN)NC(=O)[C@@H](N)Cc1ccccc1)C(=O)N[C@H](CCCc1ccccc1)C(=O)N[C@@H](CCCNC(=N)N)C(=O)O", "note": "[Example 2, H-Phenylalanyl-Lysyl-Prolyl-{(2S)-2-Amino-3-cyclohexylpropanoyl}-Alanyl-Leucyl-{(R)-2-Amino-5-phenylpentanoyl}-Arginyl-OH] (H-FKP[Cha]AL[d(hhPhe)]R-OH)", "pKi": 8.32},
      {"smiles": "CC(C)C[C@H](NC(=O)CNC(=O)[C@H](CC1CCCCC1)N(C)C(=O)CCCCN)C(=O)NC(CCCc1ccccc1)C(=O)N[C@@H](CCCNC(=N)N)C(=O)O", "note": "(single isomer, unassigned) [Example 36]", "pKi": 5.01},
      {"smiles": "CC(C)C[C@H](NC(=O)CCCc1c[nH]c2ccccc12)C(=O)NC(CCCc1ccccc1)C(=O)N[C@@H](CCCNC(=N)N)C(=O)O", "note": "(mixture of isomers) [Example 30, N-(Indole-3-butyryl)-Leucyl-{(R/S)-2-Amino-5-phenylpentanoyl}-Arginyl-OH]", "pKi": 5.15},
      {"smiles": "CC(C)C[C@H](NC(=O)[C@H](C)NC(=O)[C@H](CC1CCCCC1)NC(=O)[C@@H]1CCCN1C(=O)[C@H](CCCCN)NC(=O)CN)C(=O)NC(CCCc1ccccc1)C(=O)N[C@@H](CCCNC(=N)N)C(=O)O", "note": "(single isomer, unassigned) [Example 53, H-Glycyl-Lysyl-Prolyl-{(2S)-2-Amino-3-cyclohexylpropanoyl}-Alanyl-Leucyl-{(R/S)-2-Amino-5-phenylpentanoyl}-Arginyl-OH]", "pKi": 7.00},
      {"smiles": "CC(C)C[C@H](NC(=O)CNCCc1c[nH]c2ccccc12)C(=O)N[C@H](CCCc1ccccc1)C(=O)N[C@@H](CCCNC(=N)N)C(=O)O", "note": "[Example 79, N-[(Indol-3-yl)ethyl]-Glycyl-Leucyl-{(R)-2-Amino-5-phenylpentanoyl}-Arginyl-OH] (H-[Gly(N(CH2)2(3-indolyl))]L[d(hhPhe)]R-OH)", "pKi": 6.41},
      {"smiles": "CC(C)C[C@H](NC(=O)[C@H](C)NC(=O)[C@H](CC1CCCCC1)NC(=O)[C@@H]1CCCN1C(=O)[C@H](C)NC(=O)[C@@H](N)Cc1ccccc1)C(=O)NC(CCCc1ccccc1)C(=O)N[C@@H](CCCNC(=N)N)C(=O)O", "note": "(mixture of isomers) [Example 143, H-Phenylalanyl-Alanyl-Prolyl-{(2S)-2-Amino-3-cyclohexylpropanoyl}-Alanyl-Leucyl-{(±)-2-Amino-5-phenylpentanoyl}-Arginyl-OH]", "pKi": 7.27},
      {"smiles": "CC(C)C[C@H](NC(=O)CNC(=O)[C@@H](N)CSCc1ccccc1)C(=O)N[C@H](CCCc1ccccc1)C(=O)N[C@@H](CCCNC(=N)N)C(=O)O", "note": "[Example 90, H-Cysteinyl(S-benzyl)-Glycyl-Leucyl-{(R)-2-Amino-5-phenylpentanoyl}-Arginyl-OH] (H-C(Bn)GL[d(hhPhe)]R-OH)", "pKi": 6.74},
      {"smiles": "CC(C)C[C@H](NC(=O)[C@H](C)NC(=O)[C@H](CC1CCCCC1)NC(=O)[C@@H]1CCCN1C(=O)[C@H](CCCCN)NC(=O)CN)C(=O)N[C@@H](CSCc1ccccc1)C(=O)N[C@@H](CCCNC(=N)N)C(=O)O", "note": "[Example 108, H-Glycyl-Lysyl-Prolyl-{(2S)-2-Amino-3-cyclohexylpropanoyl}-Alanyl-Leucyl-Cysteinyl(S-benzyl)-Arginyl-OH] (H-GKP[Cha]ALC(Bn)R-OH)", "pKi": 5.32},
      {"smiles": "CC(C)C[C@H](NC(=O)CNC(=O)CCc1ccccc1)C(=O)N[C@H](CCCc1ccccc1)C(=O)N[C@@H](CCCNC(=N)N)C(=O)O", "note": "[Example 92, N-(3-Phenylpropanoyl)-Glycyl-Leucyl-{(R)-2-Amino-5-phenylpentanoyl}-Arginyl-OH] (Hydrocinnamoyl-GL[d(hhPhe)]R-OH)", "pKi": 6.12},
      {"smiles": "CC(C)C[C@H](NC(=O)CNC(=O)[C@H](CC1CCCCC1)NC(=O)CCCCc1ccccc1)C(=O)N[C@H](CCCc1ccccc1)C(=O)N[C@@H](CCCNC(=N)N)C(=O)O", "note": "[Example 62, N-(5-Phenylvaleryl)-{(2S)-2-Amino-3-cyclohexylpropanoyl}-Glycyl-Leucyl-{(R)-2-Amino-5-phenylpentanoyl}-Arginyl-OH] ({Pentanoyl(5-Ph)}-[Cha]GL[d(hhPhe)]R-OH)", "pKi": 5.97},
      {"smiles": "C[C@H](NC(=O)CNC(=O)[C@@H](N)CC1CCCCC1)C(=O)NC(CCCc1ccccc1)C(=O)N[C@@H](CCCNC(=N)N)C(=O)O", "note": "(mixture of isomers) [Example 59, H-{(2S)-2-Amino-3-cyclohexylpropanoyl}-Glycyl-Alanyl-{(±)-2-Amino-5-phenylpentanoyl}-Arginyl-OH]", "pKi": 4.17},
      {"smiles": "CC(C)C[C@H](NC(=O)[C@H](C)NC(=O)[C@H](CC1CCCCC1)NC(=O)CCCCCN)C(=O)NC(CCCc1ccccc1)C(=O)N[C@@H](CCCNC(=N)N)C(=O)O", "note": "(single isomer, unassigned) [Example 121]", "pKi": 5.15},
      {"smiles": "CC(C)C[C@H](NC(=O)CNC(=O)[C@H](CC1CCCCC1)NC(=O)Cc1ccccc1)C(=O)N[C@H](CCCc1ccccc1)C(=O)N[C@@H](CCCNC(=N)N)C(=O)O", "note": "[Example 47, N-Phenylacetyl-{(2S)-2-Amino-3-cyclohexylpropanoyl}-Glycyl-Leucyl-{(R)-2-Amino-5-phenylpentanoyl}-Arginyl-OH] (PhAc-[Cha]GL[d(hhPhe)]R-OH)", "pKi": 5.96},
      {"smiles": "CC(C)C[C@H](NC(=O)CNC(=O)[C@@H](CC1CCCCC1)NC(=O)CCCCCN)C(=O)NC(CCCc1ccccc1)C(=O)N[C@@H](CCCNC(=N)N)C(=O)O", "note": "(single isomer, unassigned) [Example 34]", "pKi": 4.67},
      {"smiles": "N=C(N)NCCC[C@H](NC(=O)C(CCCc1ccccc1)NC(=O)[C@@H](Cc1ccccc1)NC(=O)CNC(=O)[C@H](CC1CCCCC1)NC(=O)CCCCCN)C(=O)O", "note": "(mixture of isomers) [Example 58, N-(6-Aminohexanoyl)-{(2S)-2-Amino-3-cyclohexylpropanoyl}-Glycyl-DPhenylalanyl-{(R/S)-2-Amino-5-phenylpentanoyl}-Arginyl-OH]", "pKi": 5.19},
      {"smiles": "CC(C)C[C@H](NC(=O)CNC(=O)[C@H](CC1CCCCC1)NC(=O)CCCCCN)C(=O)NC(CCCc1ccccc1)C(=O)N[C@@H](CCCNC(=N)N)C(=O)O", "note": "(single isomer, unassigned) [Example 71]", "pKi": 6.82},
      {"smiles": "CC(C)C[C@H](NC(=O)CNC(=O)[C@H](CC1CCCCC1)N(C)C(=O)CCCCCCN)C(=O)NC(CCCc1ccccc1)C(=O)N[C@@H](CCCNC(=N)N)C(=O)O", "note": "(single isomer, unassigned) [Example 75]", "pKi": 4.76},
      {"smiles": "CC(C)C[C@H](NC(=O)CNC(=O)C(N)CCCc1ccccc1)C(=O)N[C@H](CCCc1ccccc1)C(=O)N[C@@H](CCCNC(=N)N)C(=O)O", "note": "(single isomer, unassigned) [Example 104]", "pKi": 5.62},
      {"smiles": "CC(C)C[C@H](NC(=O)CNC(=O)[C@H](CC1CCCCC1)NC(=O)CCCCCN)C(=O)NC(CCCc1ccccc1)C(=O)N[C@@H](CCCNC(=N)N)C(=O)O", "note": "(single isomer, unassigned) [Example 70]", "pKi": 5.35},
      {"smiles": "CC(C)C[C@H](NC(=O)CNC(=O)[C@H](CC1CCCCC1)NC(=O)NCc1cccc(CN)c1)C(=O)NC(CCCc1ccccc1)C(=O)N[C@@H](CCCNC(=N)N)C(=O)O", "note": "(single isomer, unassigned) [Example 142]", "pKi": 5.89},
      {"smiles": "CC(C)C[C@@H](C(=O)NC(CCCc1ccccc1)C(=O)N[C@@H](CCCNC(=N)N)C(=O)O)N(C)C(=O)CNC(=O)[C@H](CC1CCCCC1)NC(=O)CCCCCCN", "note": "(mixture of isomers) [Example 27, N-(7-Aminoheptanoyl)-{(2S)-2-Amino-3-cyclohexylpropanoyl}-Glycyl-Leucyl(N-methyl)-{(R/S)-2-Amino-5-phenylpentanoyl}-Arginyl-OH]", "pKi": 6.35},
      {"smiles": "CC(C)C[C@H](NC(=O)CNC(=O)c1cc2ccccc2[nH]1)C(=O)N[C@H](CCCc1ccccc1)C(=O)N[C@@H](CCCNC(=N)N)C(=O)O", "note": "[Example 131, N-[(Indol-2-yl)-carbonyl]-Glycyl-Leucyl-{(R)-2-Amino-5-phenylpentanoyl}-Arginyl-OH] (X6-GL[d(hhPhe)]R-OH)", "pKi": 6.25},
      {"smiles": "CC(C)C[C@H](NC(=O)CNC(=O)[C@H](CC1CCCCC1)NC(=O)CCCCN)C(=O)NC(CCCc1ccccc1)C(=O)N[C@@H](CCCNC(=N)N)C(=O)O", "note": "(single isomer, unassigned) [Example 139]", "pKi": 5.96},
      {"smiles": "CC(C)C[C@H](NC(=O)CCc1c[nH]c2ccccc12)C(=O)N[C@H](CCCc1ccccc1)C(=O)N[C@@H](CCCNC(=N)N)C(=O)O", "note": "[Example 38, N=(Indole-3-propionyl)-Leucyl-{(R)-2-Amino-5-phenylpentanoyl}-Arginyl-OH]", "pKi": 5.08},
      {"smiles": "CC(C)C[C@H](NC(=O)CNC(=O)C=Cc1ccccc1[N+](=O)[O-])C(=O)N[C@H](CCCc1ccccc1)C(=O)N[C@@H](CCCNC(=N)N)C(=O)O", "note": "[Example 107, N-(2-Nitrocinnamoyl)-Glycyl-Leucyl-{(R)-2-Amino-5-phenylpentanoyl}-Arginyl-OH] (X4-GL[d(hhPhe)]R-OH)", "pKi": 7.06},
      {"smiles": "CC(C)C[C@H](NC(=O)[C@H](C)NC(=O)[C@H](CC1CCCCC1)NC(=O)[C@@H]1CCCN1C(=O)[C@@H](N)CCCCN)C(=O)NC(CCCc1ccccc1)C(=O)N[C@@H](CCCNC(=N)N)C(=O)O", "note": "(single isomer, unassigned) [Example 69]", "pKi": 6.85},
      {"smiles": "CC(C)C[C@H](NC(=O)[C@@H]1CCCN1C(=O)[C@H](CC1CCCCC1)NC(=O)CNC(=O)CCCCCN)C(=O)NC(CCCc1ccccc1)C(=O)N[C@@H](CCCNC(=N)N)C(=O)O", "note": "(single isomer, unassigned) [Example 111]", "pKi": 6.00}
    ]}
  ]
}
